The values that follow come from US20240002463A1, “CHEMOGENETIC RECEPTORS AND METHODS OF MAKING AND USING” (Howard Hughes Medical Institute, priority 2022, published 2024).

Like-named read-outs stand apart in the source and are kept apart here.

Series [1] relates to dopamine release. The following applies: cited from earlier work.
Series [2] deals with hippocampal neurons expressing Gpr40. The experiment in a line: patch clamp electrophysiology of hippocampal neurons expressing Gpr40. It is filed as cell-based, rat. Particulars: 0.2 μM; FIG. 12A. The protocol: For engineered neuromodulation of neurons by fatty acids, a fatty acid […] (Gpr40) was expressed in hippocampal neurons. Neuron firing was increased in response to a fatty acid, palmitate (20 μM), as well as a synthetic Gpr40 agonist, GW9508 (0.2 μM) (FIG. 12A, 12B). For testing, embryonic rat hippocampal neurons are transfected by electroporation with a plasmid expressing GPR40 and an mCherry fluorescent protein. Then cells are plated on poly-D-lysine coated 13 mm dia #1 glass coverslips in the wells of a 24 well plates at 50,000 cells/well. Each well receives 60 μL of cell suspension plus 60 μL of NbActiv4 medium (BrainBits) and are incubated at 37 C in 5% CO2 for 4 hours for initial cell attachment. NbActiv4 media (1 mL) is then added to each well and cultures kept for the duration of the experiment. Weekly medium changes are done by replacing 0.5 mL medium from each well with fresh NbActiv4. Fluorescent cells are recorded by patch clamp electrophysiology while palmitate or GW9508 are perfused over the cells intermittently in a saline extracellular solution.
For orientation: The patch-clamp technique gives a direct electrical read-out from membranes.

For series [3], the target named is T1, α7-5HT3 (Homo sapiens, UniProt P36544).
T1 construct: expressed in transfected cells; host or cells: HEK-293 (transient transfection)
Put plainly: agonist potency/activity at unmodified α7-5HT3 chimeric channel. It counts as cell-based.

The conditions of series [4]: cited from earlier work.
The conditions of series [5]: rat; estimated; cited from earlier work.
Series [6] has as its target T2, α7-5HT3 (Homo sapiens, UniProt P36544, M226I/T225I).
T2 construct: expressed in transfected cells; host or cells: HEK-293 (transient transfection)
Put plainly: agonist potency/activity at unmodified α7-5HT3 chimeric channel. Particulars: agonist activity at unmodified α7-5HT3; read-out: EC50α7-5HT3. It counts as cell-based.

Series [7] deals with T3, α7-GlyR (Homo sapiens, UniProt P36544).
T3 construct: expressed in transfected cells; host or cells: HEK-293 (transient transfection)
The experiment in a line: agonist potency/activity at unmodified α7-GlyR chimeric channel. It counts as cell-based.

T1 sequence (P36544 with tags, fused parts or gaps T225I/M226I): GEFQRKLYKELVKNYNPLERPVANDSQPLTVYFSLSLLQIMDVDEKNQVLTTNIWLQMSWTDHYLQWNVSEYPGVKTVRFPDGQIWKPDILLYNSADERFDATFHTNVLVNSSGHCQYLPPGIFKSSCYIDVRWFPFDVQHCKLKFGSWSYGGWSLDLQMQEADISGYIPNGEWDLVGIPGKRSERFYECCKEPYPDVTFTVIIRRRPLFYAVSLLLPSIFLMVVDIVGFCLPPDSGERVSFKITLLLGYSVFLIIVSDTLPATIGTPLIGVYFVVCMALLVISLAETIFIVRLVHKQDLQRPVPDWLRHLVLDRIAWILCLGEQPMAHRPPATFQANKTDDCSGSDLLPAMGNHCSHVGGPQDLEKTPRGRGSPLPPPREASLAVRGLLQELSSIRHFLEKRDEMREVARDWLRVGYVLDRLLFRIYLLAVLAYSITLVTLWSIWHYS
T2 sequence (P36544 with tags, fused parts or gaps T225I/M226I): as above
T3 sequence (P36544 with tags, fused parts or gaps): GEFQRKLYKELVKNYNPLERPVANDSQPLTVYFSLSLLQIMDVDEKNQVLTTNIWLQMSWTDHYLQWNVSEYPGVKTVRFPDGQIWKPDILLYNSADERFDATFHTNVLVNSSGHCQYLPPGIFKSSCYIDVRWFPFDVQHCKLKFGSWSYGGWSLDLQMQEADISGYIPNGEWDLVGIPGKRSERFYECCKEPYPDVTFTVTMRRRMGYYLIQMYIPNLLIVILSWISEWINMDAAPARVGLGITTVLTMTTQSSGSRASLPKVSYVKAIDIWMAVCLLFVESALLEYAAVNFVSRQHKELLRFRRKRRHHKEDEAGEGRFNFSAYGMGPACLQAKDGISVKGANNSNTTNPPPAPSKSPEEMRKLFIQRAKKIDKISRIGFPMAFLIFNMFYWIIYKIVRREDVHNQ

For the compound `COC(=O)C(c1ccccc1)C1CCCCN1` (centres unmarked) [methylphenidate, Methylphenidate], the EC50 in series [1] (striatum, read-out: EC50 for release of DA in the striatum) was 10000 nM.

Take `CNC(C)C(=O)c1ccc(C)cc1` (centres unmarked) [mephedrone, Mephedrone]: the EC50 in series [1] (read-out: EC50 for DA release) is approximately 300 nM.

Consider `O=C(O)CCc1ccc(NCc2cccc(Oc3ccccc3)c2)cc1` [GW9508], for which the neuron firing result in series [2] is “increased”.

In the case of `CC(N)Cc1ccccc1` (centres unmarked) [amphetamine, Amphetamine], the EC50 in series [1] (read-out: EC50 for DA release) was 500 nM.

`CNC(C)C(=O)c1ccc2c(c1)OCO2` (centres unmarked) [methylone, Methylone]: the EC50 in series [1] (read-out: EC50 for DA release) was approximately 400 nM.

Regarding `CNC(C)Cc1ccc2c(c1)OCO2` (centres unmarked) [MDMA, 3,4-Methylenedioxy-methamphetamine], the “agonist activity at unmodified chimeric receptor α7-5HT3” value in series [3] is recorded as “do not show agonist activity”.

Consider `CN1CCCC1c1cccnc1` (centres unmarked) [Nicotine], for which the EC50 in series [1] (nucleus accumbens, read-out: EC50 dopamine release in the nucleus accumbens) is 480 nM.

For `CCCC(C(=O)c1ccc2c(c1)OCO2)N1CCCC1` (centres unmarked) [MDPV, methylenedioxypyrvalerone], the EC50 in series [1] (read-out: EC50 for DA release) is 100 nM.

On to `CN[C@@H](C)Cc1ccccc1` [methamphetamine, Methamphetamine], for which the “agonist activity at unmodified chimeric receptor α7-5HT3” value in series [3] is given as “do not show agonist activity”. Further, the “blood concentration during self-administration” value was 900 nM in series [4] (in females) and 700 nM in series [4] (in males).

Regarding `COC(=O)[C@H]1[C@@H](OC(=O)c2ccccc2)C[C@@H]2CC[C@H]1N2C` [Cocaine], in series [5], the “brain concentration maintained by self-administration” value was 10000 to 20000 nM.

For the compound `C[N+](C)(C)CCO` [Choline], the EC50 is 37000 nM in series [6] and 103000 nM in series [7].
